# From patent publication US11090351B2, “Whitening agent” (KAO CORPORATION, priority 2016, dated 2021)
# Where two headings read alike, the source gives them in different places.
# Columns and labels:
# mushroom tyrosinase = experiment: Tyrosinase activity assay (methanol extract, fractions, Compounds 1-3); type: biochemical; details: Table 5
# Experimental: 1 mg of methanol extract from Syzygium polyanthum prepared in Production Example 3 was dissolved in 50 μL of DMSO and 550 μL of a buffer (50 mM solution of disodium hydrogen phosphate, pH 6.5). This extract solution was transferred in a 96 well plate so that the final concentrations of extract became 500, 250, 125, 62.5, 31.25, 15.625, 7.8125 and 0 μg/mL and diluted to 60 μL with the buffer. 30 μL of the tyrosinase solution (a buffered solution of 1 mg/16 mL mushroom tyrosinase (SIGMA), pH 6.5) and 110 μL of the substrate solution (2 mM L-tyrosine or 12 mM L-DOPA) were added to each well of the 96 well plate.
# Each fraction was dissolved in 600 μL of DMSO and added to 96-well plates to the final concentrations of 50, 25 and 12.5 μg/mL.
# In the tyrosinase activity assay, the final concentrations of each compound were adjusted to 100, 50, 25, and 12.5 mM and IC50 was calculated. […] The result of the tyrosinase activity assay is illustrated in Table 5 and the results of the measurements of the relative amount of extracellular melanin and the relative cell survival rate are illustrated in Table 6.
# B16 melanoma cells [1] = experiment: Cytotoxicity test (MTT assay), relative cell survival rate; type: cell-based
# Experimental: (§1) B16 melanoma cells (DS pharma Biomedical) were used as skin melanocytes. The B16 melanoma cells were cultured in a CO2 incubator (37° C., 5% CO2) in 10 cm dishes containing the DMEM medium supplemented with 10% FBS. A cell suspension at 5.0×10^4 cells/mL was prepared from the cultured cells. 998 μL aliquots of the cell suspension were dispensed into 24 well plates and cultured in a CO2 incubator (37° C., 5% CO2) overnight. Subsequently, 2 μL of the DMSO solution of the methanol extract from Syzygium polyanthum prepared in Production Example 3 was added to each well (the final concentrations of the extract: 25 and 50 μg/mL) and the mixtures were further cultured for 72 hours. Arbutin (730 μM) was used instead of the extract as a positive control. DMSO was used as control.
# The MTT assay solution was prepared by dissolving 50 mg of Thiazolyl Blue Tetrazolium Bromide (SIGMA) in 10 mL of PBS (−). 50 μL of the MTT assay solution was added to each culture prepared in (1) and reacted for 4 hours. Then, 1 mL of isopropanol for MTT was added to each culture and the plate was covered with aluminum foil and allowed for reaction at room temperature for 2 hours for the reaction. After the reaction, the total amount was collected and centrifuged (1.45×10^3 rpm, 1 min), then 150 μL each of the supernatants was transferred into a 96 well plate, and the absorbance was measured at 590 nm. The relative cell survival rate (cytotoxicity) was calculated by determining the relative value to the control.
# (§2) The assay for tyrosinase activity was conducted in a procedure similar to that in Example 1 (3) using Compounds 1-3 as samples. In the tyrosinase activity assay, the final concentrations of each compound were adjusted to 100, 50, 25, and 12.5 mM and IC50 was calculated. Moreover, tests for melanogenesis inhibiting activity and for cytotoxicity were conducted in procedures similar to those in Example 2. The relative amount of extracellular melanin and the relative cell survival rate of skin melanocytes to which Compounds 1-3 were added were measured. The result of the tyrosinase activity assay is illustrated in Table 5 and the results of the measurements of the relative amount of extracellular melanin and the relative cell survival rate are illustrated in Table 6.
# B16 melanoma cells [2] = experiment: Inhibition of melanogenesis in skin melanocytes (relative amount of extracellular melanin); type: cell-based; details: Mus musculus
# Experimental: as §1
# The supernatants of the cultures prepared in (1) were collected, 200 μL each was transferred into a 96 well plate, and then the absorbance was measured at 510 nm. The relative amount of extracellular melanin was calculated by determining the relative value to the control.
# as §2
# [3] = substrate L-DOPA, read-out: IC50 (μM) DOPA
# [4] = substrate L-tyrosine, read-out: IC50 (μM) Tyrosine
IC50 (mushroom tyrosinase; [3]) [µM],IC50 (mushroom tyrosinase; [4]) [µM],Compound,Cell Viability (%) (B16 melanoma cells [1]; 100 μM),Cell Viability (%) (B16 melanoma cells [1]; 200 μM),activity at 100 µM (B16 melanoma cells [2]) [%],activity at 200 µM (B16 melanoma cells [2]; 200 μM) [%],"Cell Viability (%) (B16 melanoma cells [1]; 730 μM, 72 hours, MTT, relative to control, Table 3)","Cell Viability (%) (B16 melanoma cells [1]; 730 μM, Table 6)","activity at 730 µM (B16 melanoma cells [2]; 72 hours, relative to DMSO control, Table 3) [%]",activity at 730 µM (B16 melanoma cells [2]; Table 6) [%],Cell Viability (%) (B16 melanoma cells [1]; 25 μM),Cell Viability (%) (B16 melanoma cells [1]; 50 μM),activity at 25 µM (B16 melanoma cells [2]) [%],activity at 50 µM (B16 melanoma cells [2]) [%],Cell Viability (%) (B16 melanoma cells [1]; 75 μM),activity at 75 µM (B16 melanoma cells [2]; 75 μM) [%]
291,125,"CCCCCC(=O)c1cc(O)c(C)c(O)c1O [Compound 1, 1-(2,3,5-Trihydroxy-4-methylphenyl)hexane-1-one]",73.3,64.9,78.2,13.6,–,–,–,–,–,–,–,–,–,–
–,–,"OC[C@H]1O[C@@H](Oc2ccc(O)cc2)[C@H](O)[C@@H](O)[C@@H]1O [Arbutin, reference compound]",–,–,–,–,99,107.6,21.3,32.7,–,–,–,–,–,–
616,481,"CCCCCCCC(=O)c1cc(O)c(C)c(O)c1O [Compound 2, 1-(2,3,5-Trihydroxy-4-methylphenyl)octane-1-one]",–,–,–,–,–,–,–,–,95.0,87.4,99,13.5,–,–
489,84,"CCCCC/C=C/CCC(=O)c1cc(O)c(C)c(O)c1O [Compound 3, (4E)-1-(2,3,5-Trihydroxy-4-methylphenyl)dec-4-en-1-one]",72.9,–,11.4,–,–,–,–,–,94.3,99.8,107,27.2,92.5,9.7
